# Laboratory results as given in patent US11464854B2, “Methods and compositions relating to adjuvants” (Children's Medical Center Corporation, priority 2017, dated 2022).
# Assays:
# TNF = assay: Rat pharmacodynamics: serum TNF by ELISA; type: in vivo, rats; conditions: rat, in vivo, sc
# [1] = system: cytokine and IFN-inducible gene expression in draining lymph nodes and spleen; type: in vivo, mice; conditions: mouse, in vivo, sc
smiles,measurement,setting,value
"CCOCc1nc2c(N)nc3ccccc3c2n1CC(C)(C)O [R848, Resiquimod, reference compound]","Blood tumor necrosis factor (TNF) concentrations, peak",TNF,"~1,000 pg/ml"
same,time of peak cytokine mRNA expression,[1],1 to 3 h
